The record followed here is patent publication US9334279B2, “Hepatitis C virus inhibitors” (BRISTOL-MYERS SQUIBB COMPANY, priority 2012, dated 2016).

The test system of one assay is HCV GT1a(H77) replicon. Description: HCV replicon luciferase reporter assay, genotype 1a. The format is cell-based, HCV genotype 1a. Particulars: Hepatitis C virus, 72 h, HUH-7 cells, Renilla luciferase, 3 days incubation, read-out: LE_1a (EC50, range). The gist of the method:
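Huh-7 cells stably carried a GT1a(H77) Renilla luciferase replicon with NS3 P1496L and NS5A S2204I adaptive mutations. Luminescence was read after 2 h with 7.5 μM EnduRen, and EC50 came from a four-parameter logistic fit; CC50 came from multiplexed Cell Titer-Blue (8 h).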

The next assay has as its system HCV GT1b(Con1) replicon. Put plainly: HCV replicon luciferase reporter assay, genotype 1b. Particulars: Hepatitis C virus, 72 h, HUH-7 cells, Renilla luciferase, 3 days incubation, read-out: LE_1b (EC50, range). The format is cell-based, HCV genotype 1b. An outline of the steps: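 HUH-7 cells stably carrying a Con1 GT1b replicon with Renilla luciferase and Ser1179Ile adaptive mutation; 3.0×10^3 cells/well, DMEM 4% FCS, 0.5% DMSO, twenty-point 3-fold titration, 3 days 37 °C. Luminescence 2 h after 7.5 μM EnduRen; EC50 by four-parameter logistic fit. CC50 from multiplexed Cell Titer-Blue fluorescence (8 h).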

Regarding `CC(C)Oc1ccc(-c2cc(Cl)cc(O[C@@H]3C[C@H]4C(=O)N[C@]5(C(=O)NS(=O)(=O)C6(C)CC6)C[C@H]5/C=C\CC[C@H](C)C[C@@H](C)[C@H](NC(=O)OC(C)(C)C)C(=O)N4C3)n2)cc1` [Compound 1030, tert-butyl ((2R,6S,7R,9S,13aS,14aR,16aS,Z)-2-((4-chloro-6-(4-isopropoxyphenyl)pyridin-2-yl)oxy)-7,9-dimethyl-14a-(((1-methylcyclopropyl)sulfonyl)carbamoyl)-5,16-dioxo-1,2,3,5,6,7,8,9,10,11,13a,14,14a,15,16,16a-hexadecahydrocyclopropa[e]pyrrolo[1,2-a][1,4]diazacyclopentadecin-6-yl)carbamate], the EC50 with HCV GT1a(H77) replicon and in the assay on HCV GT1b(Con1) replicon was 35 to 359 nM in each case.
In the case of `C[C@@H]1CC/C=C\[C@@H]2C[C@@]2(C(=O)NS(=O)(=O)C2(C)CC2)NC(=O)[C@@H]2C[C@@H](Oc3cc(-c4nccs4)ccn3)CN2C(=O)[C@@H](NC(=O)OC(C)(C)C(F)(F)F)[C@H](C)C1` [Compound 1031, 1,1,1-trifluoro-2-methylpropan-2-yl ((2R,6S,7R,9R,13aS,14aR,16aS,Z)-7,9-dimethyl-14a-(((1-methylcyclopropyl)sulfonyl)carbamoyl)-5,16-dioxo-2-((4-(thiazol-2-yl)pyridin-2-yl)oxy)-1,2,3,5,6,7,8,9,10,11,13a,14,14a,15,16,16a-hexadecahydrocyclopropa[e]pyrrolo[1,2-a][1,4]diazacyclopentadecin-6-yl)carbamate], the half-maximal effective concentration (EC50) is 1.01 to 5 nM with HCV GT1a(H77) replicon and 0.51 to 1 nM with HCV GT1b(Con1) replicon.
The matching figures for `C[C@H]1CC/C=C\[C@@H]2C[C@@]2(C(=O)NS(=O)(=O)C2(C)CC2)NC(=O)[C@@H]2C[C@@H](Oc3cc(-c4nccs4)ccn3)CN2C(=O)[C@@H](NC(=O)OC(C)(C)C(F)(F)F)[C@H](C)C1` [Compound 1032, 1,1,1-trifluoro-2-methylpropan-2-yl ((2R,6S,7R,9S,13aS,14aR,16aS,Z)-7,9-dimethyl-14a-(((1-methylcyclopropyl)sulfonyl)carbamoyl)-5,16-dioxo-2-((4-(thiazol-2-yl)pyridin-2-yl)oxy)-1,2,3,5,6,7,8,9,10,11,13a,14,14a,15,16,16a-hexadecahydrocyclopropa[e]pyrrolo[1,2-a][1,4]diazacyclopentadecin-6-yl)carbamate]: 5.01 to 35 nM and 5.01 to 35 nM.
The matching figures for `CC[C@@H]1O[C@H](C)CC/C=C\[C@@H]2C[C@@]2(C(=O)NS(=O)(=O)C2(C)CC2)NC(=O)[C@@H]2C[C@@H](Oc3cc(-c4ccc(OC(C)C)cc4)nc(-c4cncs4)c3)CN2C(=O)[C@H]1NC(=O)OC(C)(C)C(F)(F)F` [Compound 1033, 1,1,1-trifluoro-2-methylpropan-2-yl ((2R,6S,7S,9R,13aS,14aR,16aS,Z)-7-ethyl-2-((2-(4-isopropoxyphenyl)-6-(thiazol-5-yl)pyridin-4-yl)oxy)-9-methyl-14a-(((1-methylcyclopropyl)sulfonyl)carbamoyl)-5,16-dioxo-2,3,5,6,7,9,10,11,13a,14,14a,15,16,16a-tetradecahydro-1H-cyclopropa[i]pyrrolo[1,2-e][1,5,8]oxadiazacyclopentadecin-6-yl)carbamate]: 1.01 to 5 nM and 0.51 to 1 nM.
Take `CC[C@@H]1O[C@H](C)CC/C=C\[C@@H]2C[C@@]2(C(=O)NS(=O)(=O)C2(C)CC2)NC(=O)[C@@H]2C[C@@H](Oc3cc(-c4ccc(OC(C)C)cc4)nc(-c4cncs4)c3)CN2C(=O)[C@H]1NC(=O)OC1(C(F)(F)F)CCCOC1` (stereo partly drawn) [Compound 1034, 3-(trifluoromethyl)tetrahydro-2H-pyran-3-yl ((2R,6S,7S,9R,13aS,14aR,16aS,Z)-7-ethyl-2-((2-(4-isopropoxyphenyl)-6-(thiazol-5-yl)pyridin-4-yl)oxy)-9-methyl-14a-(((1-methylcyclopropyl)sulfonyl)carbamoyl)-5,16-dioxo-2,3,5,6,7,9,10,11,13a,14,14a,15,16,16a-tetradecahydro-1H-cyclopropa[i]pyrrolo[1,2-e][1,5,8]oxadiazacyclopentadecin-6-yl)carbamate]: the EC50 in the assay on HCV GT1a(H77) replicon fell in the range of 1.01 to 5 nM; with HCV GT1b(Con1) replicon it was 0.51 to 1 nM.
The corresponding values for `CC[C@@H]1O[C@H](C)CC/C=C\[C@@H]2C[C@@]2(C(=O)NS(=O)(=O)C2(C)CC2)NC(=O)[C@@H]2C[C@@H](Oc3cc(-c4ccc(OC(C)C)cc4)nc(-c4nccs4)c3)CN2C(=O)[C@H]1NC(=O)OC1(C(F)(F)F)CCCOC1` (stereo partly drawn) [Compound 1035, 3-(trifluoromethyl)tetrahydro-2H-pyran-3-yl ((2R,6S,7S,9R,13aS,14aR,16aS,Z)-7-ethyl-2-((2-(4-isopropoxyphenyl)-6-(thiazol-2-yl)pyridin-4-yl)oxy)-9-methyl-14a-(((1-methylcyclopropyl)sulfonyl)carbamoyl)-5,16-dioxo-2,3,5,6,7,9,10,11,13a,14,14a,15,16,16a-tetradecahydro-1H-cyclopropa[i]pyrrolo[1,2-e][1,5,8]oxadiazacyclopentadecin-6-yl)carbamate] are 0.51 to 1 nM and 0.51 to 1 nM.
The corresponding values for `CC[C@@H]1O[C@H](C)CC/C=C\[C@@H]2C[C@@]2(C(=O)NS(=O)(=O)C2(C)CC2)NC(=O)[C@@H]2C[C@@H](Oc3cc(-c4ccc(OC(C)C)cc4)nc(-c4cscn4)c3)CN2C(=O)[C@H]1NC(=O)OC1(C(F)(F)F)CCCOC1` (stereo partly drawn) [Compound 1036, 3-(trifluoromethyl)tetrahydro-2H-pyran-3-yl ((2R,6S,7S,9R,13aS,14aR,16aS,Z)-7-ethyl-2-((2-(4-isopropoxyphenyl)-6-(thiazol-4-yl)pyridin-4-yl)oxy)-9-methyl-14a-(((1-methylcyclopropyl)sulfonyl)carbamoyl)-5,16-dioxo-2,3,5,6,7,9,10,11,13a,14,14a,15,16,16a-tetradecahydro-1H-cyclopropa[i]pyrrolo[1,2-e][1,5,8]oxadiazacyclopentadecin-6-yl)carbamate] are 0.51 to 1 nM and 0.1 to 0.5 nM.
The matching figures for `CC[C@@H]1O[C@H](C)CC/C=C\[C@@H]2C[C@@]2(C(=O)NS(=O)(=O)C2(C)CC2)NC(=O)[C@@H]2C[C@@H](Oc3cc(-c4ccc(OC(C)C)cc4)nc(-c4ccccn4)c3)CN2C(=O)[C@H]1NC(=O)OC1(C(F)(F)F)CCCOC1` (stereo partly drawn) [Compound 1037, 3-(trifluoromethyl)tetrahydro-2H-pyran-3-yl ((2R,6S,7S,9R,13aS,14aR,16aS,Z)-7-ethyl-2-((6-(4-isopropoxyphenyl)-[2,2′-bipyridin]-4-yl)oxy)-9-methyl-14a-(((1-methylcyclopropyl)sulfonyl)carbamoyl)-5,16-dioxo-2,3,5,6,7,9,10,11,13a,14,14a,15,16,16a-tetradecahydro-1H-cyclopropa[i]pyrrolo[1,2-e][1,5,8]oxadiazacyclopentadecin-6-yl)carbamate]: 1.01 to 5 nM and 0.1 to 0.5 nM.
Consider `CC[C@@H]1OCCC/C=C\[C@@H]2C[C@@]2(C(=O)NS(=O)(=O)C2(C)CC2)NC(=O)[C@@H]2C[C@@H](Oc3cc(-c4ccc(OC(C)C)cc4)nc(-c4cncs4)c3)CN2C(=O)[C@H]1NC(=O)OC1(C(F)(F)F)CCCOC1` (stereo partly drawn) [Compound 1038, 3-(trifluoromethyl)tetrahydro-2H-pyran-3-yl ((2R,6S,7S,13aS,14aR,16aS,Z)-7-ethyl-2-((2-(4-isopropoxyphenyl)-6-(thiazol-5-yl)pyridin-4-yl)oxy)-14a-(((1-methylcyclopropyl)sulfonyl)carbamoyl)-5,16-dioxo-2,3,5,6,7,9,10,11,13a,14,14a,15,16,16a-tetradecahydro-1H-cyclopropa[i]pyrrolo[1,2-e][1,5,8]oxadiazacyclopentadecin-6-yl)carbamate], for which the EC50 in the assay with HCV GT1a(H77) replicon fell in the range of 1.01 to 5 nM; with HCV GT1b(Con1) replicon it was 0.51 to 1 nM.
Regarding `CC[C@@H]1O[C@H](C)CC/C=C\[C@@H]2C[C@@]2(C(=O)NS(=O)(=O)C2(C)CC2)NC(=O)[C@@H]2C[C@@H](Oc3cc(-c4ccc(C(F)(F)F)cc4)nc(-c4nccs4)c3)CN2C(=O)[C@H]1NC(=O)OC(C)(C)C(F)(F)F` [Compound 1039, 1,1,1-trifluoro-2-methylpropan-2-yl ((2R,6S,7S,9R,13aS,14aR,16aS,Z)-7-ethyl-9-methyl-14a-(((1-methylcyclopropyl)sulfonyl)carbamoyl)-5,16-dioxo-2-((2-(thiazol-2-yl)-6-(4-(trifluoromethyl)phenyl)pyridin-4-yl)oxy)-2,3,5,6,7,9,10,11,13a,14,14a,15,16,16a-tetradecahydro-1H-cyclopropa[i]pyrrolo[1,2-e][1,5,8]oxadiazacyclopentadecin-6-yl)carbamate], the EC50 with HCV GT1a(H77) replicon and in the assay on HCV GT1b(Con1) replicon was 1.01 to 5 nM throughout.
For `CC[C@@H]1O[C@H](C)CC/C=C\[C@@H]2C[C@@]2(C(=O)NS(=O)(=O)C2(C)CC2)NC(=O)[C@@H]2C[C@@H](Oc3cc(-c4ccc(C(F)(F)F)cc4)nc(-c4nccs4)c3)CN2C(=O)[C@H]1NC(=O)OC1(C(F)(F)F)CCCOC1` (stereo partly drawn) [Compound 1040, 3-(trifluoromethyl)tetrahydro-2H-pyran-3-yl ((2R,6S,7S,9R,13aS,14aR,16aS,Z)-7-ethyl-9-methyl-14a-(((1-methylcyclopropyl)sulfonyl)carbamoyl)-5,16-dioxo-2-((2-(thiazol-2-yl)-6-(4-(trifluoromethyl)phenyl)pyridin-4-yl)oxy)-2,3,5,6,7,9,10,11,13a,14,14a,15,16,16a-tetradecahydro-1H-cyclopropa[i]pyrrolo[1,2-e][1,5,8]oxadiazacyclopentadecin-6-yl)carbamate], the EC50 was in the range of 0.51 to 1 nM in the assay with HCV GT1a(H77) replicon and 0.1 to 0.5 nM in the assay on HCV GT1b(Con1) replicon.
